“And” between values parts separate entries of the source, which are not always exact repeats. Identical values can stand only once.
Experiments:
human recombinant MAO-A = molecular target: T1, human recombinant MAO-A (Homo sapiens, UniProt P21397); assay: MAO-Glo MAO-A inhibition assay; assay type: biochemical; details: for IC50: 0–50 μM range, 160 µM substrate, 37 °C, 1 h, read-out: IC50 for MAO-A inhibitory activity; for MAO-A enzyme assay, Percent of control: N=1-3; for inhibition of MAO-A enzyme activity: compared to vehicle
T1 construct: purchased Sigma-Aldrich
T1 sequence (P21397 1-527): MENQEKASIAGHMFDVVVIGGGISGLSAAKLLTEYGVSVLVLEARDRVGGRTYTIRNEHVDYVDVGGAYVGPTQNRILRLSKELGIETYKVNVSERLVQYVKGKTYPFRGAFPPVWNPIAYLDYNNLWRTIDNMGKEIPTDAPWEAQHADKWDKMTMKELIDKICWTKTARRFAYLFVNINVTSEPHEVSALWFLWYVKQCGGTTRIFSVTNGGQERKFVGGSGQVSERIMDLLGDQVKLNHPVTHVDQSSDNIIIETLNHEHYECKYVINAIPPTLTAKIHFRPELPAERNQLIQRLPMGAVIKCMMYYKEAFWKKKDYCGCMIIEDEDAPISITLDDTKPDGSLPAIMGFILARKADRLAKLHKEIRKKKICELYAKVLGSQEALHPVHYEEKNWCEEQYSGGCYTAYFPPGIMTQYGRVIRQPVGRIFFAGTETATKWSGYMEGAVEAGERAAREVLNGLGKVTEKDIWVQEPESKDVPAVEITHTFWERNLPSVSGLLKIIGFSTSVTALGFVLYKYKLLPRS
Procedure: (§1) MAO inhibition assays were performed using a MAO-Glo™ Assay kit (Promega) according to the manufacturer’s instructions. Briefly, 1 µg of human recombinant MAO-A and MAO-B enzyme isoforms were incubated with 160 and 16 µM of MAO substrates, respectively. […] The enzyme reaction was quenched by the addition of a luciferin detection reagent. […] An equal volume of dimethyl sulfoxide (0.1%) was added to the enzyme assay as a control. After 1 h of incubation, the luminescence was measured with a multimode microplate reader (Synergy HT, BioTek, Winooski, VT, USA) to determine the MAO enzyme activities. Initially, the inhibition potential of all the test compounds was evaluated at a concentration of 100 μM. The control reaction (with no inhibitor) with vehicle (DMSO 0.1%) was set at 100% activity. To determine IC50 of the test compounds, the dose dependent enzyme assays were performed. We used range of 0.1 to 50 μM concentrations for MAO-A and 0.1 to 200 μM concentrations of test compounds for the MAO-B enzyme activities. The type of enzyme inhibition was determined using variable concentrations of MAO-A substrate (10–360 µM) and MAO-B substrate (2–64 µM) for the respective enzyme assay. […] A Lineweaver–Burk double reciprocal plot was generated, and the mode of inhibition was determined by visual examination of the plot. The slope of the reciprocal plots was plotted against the inhibitor concentrations and determined the x-axis intercept that represented the inhibitor constant, Ki value.

human recombinant MAO-B = molecular target: T2, human recombinant MAO-B (Homo sapiens, UniProt P27338); assay: MAO-Glo MAO-B inhibition assay; assay type: biochemical; details: N=1-3
T2 construct: purchased Sigma-Aldrich
T2 sequence (P27338 1-520): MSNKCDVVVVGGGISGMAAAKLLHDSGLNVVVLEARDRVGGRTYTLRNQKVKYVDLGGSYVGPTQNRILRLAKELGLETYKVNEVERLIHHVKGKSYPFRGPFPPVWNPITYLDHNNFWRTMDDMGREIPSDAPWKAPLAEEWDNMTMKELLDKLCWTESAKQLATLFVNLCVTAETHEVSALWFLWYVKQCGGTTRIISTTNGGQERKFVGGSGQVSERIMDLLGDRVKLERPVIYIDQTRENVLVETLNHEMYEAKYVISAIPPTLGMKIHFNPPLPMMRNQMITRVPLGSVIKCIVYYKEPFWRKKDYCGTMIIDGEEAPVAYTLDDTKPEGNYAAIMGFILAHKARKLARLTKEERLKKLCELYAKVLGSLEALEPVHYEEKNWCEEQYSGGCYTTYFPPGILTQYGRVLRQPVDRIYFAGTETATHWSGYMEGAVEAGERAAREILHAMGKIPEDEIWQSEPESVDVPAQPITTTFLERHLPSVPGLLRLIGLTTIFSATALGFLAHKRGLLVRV
Procedure: as §1

## O=c1oc2cc(O)ccc2c2ccc(O)cc12 [UA, urolithin-A]
Human recombinant MAO-A
  IC50: 5.88 ± 0.69 µM
Human recombinant MAO-A; 0.1 µM, listed as UroA
  MAO-A enzyme assay, Percent of control: 103.587% of control and 97.8592% of control and 101.542% of control
Human recombinant MAO-A; 0.5 µM, listed as UroA
  MAO-A enzyme assay, Percent of control: 95.9845% of control and 94.0414% of control and 95.8492% of control
Human recombinant MAO-A; 1 µM, listed as UroA
  MAO-A enzyme assay, Percent of control: 62.4789% of control and 79.8224% of control and 85.3157% of control
Human recombinant MAO-A; 5 µM, listed as UroA
  MAO-A enzyme assay, Percent of control: 59.251% of control and 60.0082% of control and 51.3175% of control
Human recombinant MAO-A; 10 µM, listed as UroA
  MAO-A enzyme assay, Percent of control: 48.1185% of control and 46.1024% of control and 43.7898% of control
Human recombinant MAO-A; 25 µM, listed as UroA
  MAO-A enzyme assay, Percent of control: 24.6659% of control and 27.2749% of control and 27.3403% of control
Human recombinant MAO-A; 50 µM, listed as UroA
  MAO-A enzyme assay, Percent of control: 13.9758% of control and 16.0253% of control and 16.3887% of control
Human recombinant MAO-A; 100 µM (Figure 1A), listed as UroA, 100 µM
  MAO-A enzyme assay, Percent of control: 13.2811% of control and 14.5442% of control and 14.4558% of control
Human recombinant MAO-A; 100 µM
  inhibition of MAO-A enzyme activity: 86%
Human recombinant MAO-B; 0.1 µM, listed as UroA
  MAO-B enzyme assay, Percent of control: 100.912% of control and 101.373% of control and 99.9795% of control
Human recombinant MAO-B; 1 µM, listed as UroA
  MAO-B enzyme assay, Percent of control: 93.9146% of control and 96.8343% of control and 95.7816% of control
Human recombinant MAO-B; 10 µM, listed as UroA
  MAO-B enzyme assay, Percent of control: 91.0665% of control and 92.3573% of control and 93.7097% of control
Human recombinant MAO-B; 25 µM, listed as UroA
  MAO-B enzyme assay, Percent of control: 94.1092% of control and 90.4928% of control
Human recombinant MAO-B; 50 µM, listed as UroA
  MAO-B enzyme assay, Percent of control: 81.2724% of control and 83.4341% of control and 89.5093% of control
Human recombinant MAO-B; 100 µM (Figure 1C), listed as UroA, 100 µM
  MAO-B enzyme assay, Percent of control: 76.7559% of control and 78.826% of control and 78.8568% of control
Human recombinant MAO-B; 100 µM, listed as UroA
  MAO-B enzyme assay, Percent of control: 71.1402% of control and 80.3709% of control and 83.4443% of control
Human recombinant MAO-B; 200 µM, listed as UroA
  MAO-B enzyme assay, Percent of control: 40.5081% of control and 42.2805% of control and 48.6733% of control

## O=c1oc2cc(O)ccc2c2ccccc12 [UB, urolithin-B]
Human recombinant MAO-A
  IC50: 0.88 µM
Human recombinant MAO-A; 0.1 µM, listed as UroB
  MAO-A enzyme assay, Percent of control: 101.662% of control and 98.0675% of control and 93.5275% of control
Human recombinant MAO-A; 0.5 µM, listed as UroB
  MAO-A enzyme assay, Percent of control: 64.4524% of control and 74.8902% of control and 80.9217% of control
Human recombinant MAO-A; 1 µM, listed as UroB
  MAO-A enzyme assay, Percent of control: 51.8207% of control and 51.0498% of control and 41.9972% of control
Human recombinant MAO-A; 5 µM, listed as UroB
  MAO-A enzyme assay, Percent of control: 37.9544% of control and 37.4055% of control and 33.2487% of control
Human recombinant MAO-A; 10 µM, listed as UroB
  MAO-A enzyme assay, Percent of control: 21.8683% of control and 19.2684% of control and 22.2499% of control
Human recombinant MAO-A; 25 µM, listed as UroB
  MAO-A enzyme assay, Percent of control: 10.1321% of control and 11.7696% of control and 12.9039% of control
Human recombinant MAO-A; 50 µM, listed as UroB
  MAO-A enzyme assay, Percent of control: 6.787% of control and 6.156% of control and 5.227% of control
Human recombinant MAO-A; 100 µM (Figure 1A), listed as UroB, 100 µM
  MAO-A enzyme assay, Percent of control: 5.573% of control and 6.858% of control and 6.006% of control
Human recombinant MAO-A; 100 µM
  inhibition of MAO-A enzyme activity: 94%
Human recombinant MAO-B; 0.1 µM, listed as UroB
  MAO-B enzyme assay, Percent of control: 107.968% of control and 101.629% of control and 95.3271% of control
Human recombinant MAO-B; 1 µM, listed as UroB
  MAO-B enzyme assay, Percent of control: 109.561% of control and 99.5806% of control and 93.6856% of control
Human recombinant MAO-B; 10 µM, listed as UroB
  MAO-B enzyme assay, Percent of control: 97.6995% of control and 92.8109% of control and 92.0441% of control
Human recombinant MAO-B; 25 µM, listed as UroB
  MAO-B enzyme assay, Percent of control: 95.5787% of control and 94.7999% of control and 85.3343% of control
Human recombinant MAO-B; 50 µM, listed as UroB
  MAO-B enzyme assay, Percent of control: 93.9851% of control and 85.8855% of control and 84.5675% of control
Human recombinant MAO-B; 100 µM (Figure 1C), listed as UroB, 100 µM
  MAO-B enzyme assay, Percent of control: 92.2554% of control and 86.0762% of control and 81.4109% of control
Human recombinant MAO-B; 100 µM, listed as UroB
  MAO-B enzyme assay, Percent of control: 74.6465% of control and 81.8955% of control and 81.8476% of control
Human recombinant MAO-B; 200 µM, listed as UroB
  MAO-B enzyme assay, Percent of control: 35.5859% of control and 42.116% of control and 26.5397% of control

## O=c1oc2cc(O)ccc2c2cc(O)c(O)cc12 [UC, urolithin-C]
Human recombinant MAO-A
  IC50: 29.6 ± 1.8 µM
Human recombinant MAO-A; 0.1 µM, listed as UroC
  MAO-A enzyme assay, Percent of control: 81.5785% of control and 83.2586% of control and 93.5154% of control
Human recombinant MAO-A; 0.5 µM, listed as UroC
  MAO-A enzyme assay, Percent of control: 88.4995% of control and 88.7443% of control and 76.6736% of control
Human recombinant MAO-A; 1 µM, listed as UroC
  MAO-A enzyme assay, Percent of control: 95.9222% of control and 92.2777% of control and 91.5145% of control
Human recombinant MAO-A; 5 µM, listed as UroC
  MAO-A enzyme assay, Percent of control: 81.1285% of control and 71.4874% of control and 89.8253% of control
Human recombinant MAO-A; 10 µM, listed as UroC
  MAO-A enzyme assay, Percent of control: 68.5636% of control and 69.9396% of control and 63.7804% of control
Human recombinant MAO-A; 25 µM, listed as UroC
  MAO-A enzyme assay, Percent of control: 64.6896% of control and 58.5532% of control and 52.6539% of control
Human recombinant MAO-A; 50 µM, listed as UroC
  MAO-A enzyme assay, Percent of control: 46.6421% of control and 44.3022% of control and 44.6686% of control
Human recombinant MAO-A; 100 µM (Figure 1A), listed as UroC, 100 µM
  MAO-A enzyme assay, Percent of control: 11.345% of control and 12.577% of control and 11.352% of control
Human recombinant MAO-A; 100 µM
  inhibition of MAO-A enzyme activity: 88%
Human recombinant MAO-B; 0.1 µM, listed as UroC
  MAO-B enzyme assay, Percent of control: 110.306% of control and 101.117% of control and 109.128% of control
Human recombinant MAO-B; 1 µM, listed as UroC
  MAO-B enzyme assay, Percent of control: 102.407% of control and 98.5247% of control and 98.1149% of control
Human recombinant MAO-B; 10 µM, listed as UroC
  MAO-B enzyme assay, Percent of control: 102.182% of control and 94.8161% of control and 92.9925% of control
Human recombinant MAO-B; 25 µM, listed as UroC
  MAO-B enzyme assay, Percent of control: 89.5195% of control and 89.6937% of control and 94.0068% of control
Human recombinant MAO-B; 50 µM, listed as UroC
  MAO-B enzyme assay, Percent of control: 87.5627% of control and 83.096% of control and 84.7864% of control
Human recombinant MAO-B; 100 µM (Figure 1C), listed as UroC, 100 µM
  MAO-B enzyme assay, Percent of control: 86.1998% of control and 88.2904% of control and 90.5046% of control
Human recombinant MAO-B; 100 µM, listed as UroC
  MAO-B enzyme assay, Percent of control: 82.8808% of control and 77.9531% of control and 81.7949% of control
Human recombinant MAO-B; 200 µM, listed as UroC
  MAO-B enzyme assay, Percent of control: 43.4074% of control and 44.8007% of control and 46.1838% of control
